Patent publication US20080306128A1, “Preparation of Hydrochloride Salts of Tetrazole Derivative” (priority 2004, published 2008)

Experiment: stability of the new salt form on longer heating at increased temperatures
Type: physicochemical

SMILES: CCCCC1=NC2(CCCC2)C(=O)N1Cc1ccc(-c2ccccc2-c2nnn[nH]2)cc1.Cl [2-butyl-1-[2′-(1H-tetrazol-5-yl)bifenyl-4-yl-methyl]spiro[2-imidazoline-4.1′-cyclopentane]-5-one hydrochloride]
- stability (decomposition on heating): does not decompose
